Laboratory results taken from patent publication US20240158393A1, “PYRIDONE COMPOUNDS AND METHODS OF USE” (Exelixis, Inc., priority 2021, published 2024).

Assays:
[1] = target: T1, Human Axl (Homo sapiens, UniProt P30530); test: Human AXL kinase assay (33P radiometric / HTRF KinEase); assay type: biochemical; conditions: protocols of Examples A-1 and/or A-2
T1 construct: Human AXL (residues 464-885)
T1 sequence (P30530 1-894 Q764R): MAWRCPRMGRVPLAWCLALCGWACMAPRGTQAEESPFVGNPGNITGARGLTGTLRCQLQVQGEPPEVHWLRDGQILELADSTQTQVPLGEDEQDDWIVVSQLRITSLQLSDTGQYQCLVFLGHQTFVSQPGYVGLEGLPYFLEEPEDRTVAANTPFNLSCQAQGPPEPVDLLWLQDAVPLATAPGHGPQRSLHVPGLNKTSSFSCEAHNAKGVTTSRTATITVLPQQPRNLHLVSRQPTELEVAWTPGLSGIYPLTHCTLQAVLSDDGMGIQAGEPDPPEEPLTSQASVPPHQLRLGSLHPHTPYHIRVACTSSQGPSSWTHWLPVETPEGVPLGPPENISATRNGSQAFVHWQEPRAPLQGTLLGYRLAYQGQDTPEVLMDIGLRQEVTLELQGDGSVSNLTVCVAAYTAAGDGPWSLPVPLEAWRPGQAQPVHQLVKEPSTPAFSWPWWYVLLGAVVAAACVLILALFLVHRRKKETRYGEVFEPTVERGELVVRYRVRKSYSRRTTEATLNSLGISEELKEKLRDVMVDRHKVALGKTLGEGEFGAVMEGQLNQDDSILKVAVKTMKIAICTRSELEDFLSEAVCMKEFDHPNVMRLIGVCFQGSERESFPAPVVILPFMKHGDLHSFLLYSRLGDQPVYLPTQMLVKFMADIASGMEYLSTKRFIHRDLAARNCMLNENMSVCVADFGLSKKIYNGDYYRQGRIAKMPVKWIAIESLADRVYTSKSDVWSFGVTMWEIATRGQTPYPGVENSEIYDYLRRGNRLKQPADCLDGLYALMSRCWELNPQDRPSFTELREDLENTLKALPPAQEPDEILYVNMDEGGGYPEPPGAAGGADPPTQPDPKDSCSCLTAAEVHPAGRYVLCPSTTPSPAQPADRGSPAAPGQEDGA

[2] = target: T2, Human KDR (Homo sapiens, UniProt P35968); test: Human KDR kinase assay (33P radiometric / HTRF KinEase); assay type: biochemical; conditions: protocols of Examples B-1 and/or B-2
T2 construct: Human KDR (residues K790-V1356, 55 nM); purchased Eurofins Pharma Discovery Services UK Limited (KinaseProfiler, B-1) and/or CarnaBio (B-2)
T2 sequence (P35968 790-1356): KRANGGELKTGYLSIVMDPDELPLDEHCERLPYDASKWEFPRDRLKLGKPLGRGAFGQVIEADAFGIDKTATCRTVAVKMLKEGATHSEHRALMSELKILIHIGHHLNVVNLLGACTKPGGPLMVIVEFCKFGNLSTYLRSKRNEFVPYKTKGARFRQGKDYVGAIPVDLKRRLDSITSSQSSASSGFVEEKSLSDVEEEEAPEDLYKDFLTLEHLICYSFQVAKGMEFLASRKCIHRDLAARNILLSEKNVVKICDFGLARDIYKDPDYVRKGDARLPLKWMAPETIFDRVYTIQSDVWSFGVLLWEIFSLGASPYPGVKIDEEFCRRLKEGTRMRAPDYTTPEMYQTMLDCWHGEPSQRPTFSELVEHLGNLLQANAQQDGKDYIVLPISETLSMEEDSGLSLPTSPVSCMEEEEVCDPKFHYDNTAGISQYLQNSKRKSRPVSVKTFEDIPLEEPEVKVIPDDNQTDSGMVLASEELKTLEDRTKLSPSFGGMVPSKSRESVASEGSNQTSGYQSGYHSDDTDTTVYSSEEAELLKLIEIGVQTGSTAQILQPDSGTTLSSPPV
Outline: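 Radiometric: KDR K790-V1356 (55 nM), MOPS pH 7.0, myelin basic protein, 10 μM [γ-33P]ATP, 40 min at room temperature, filter-bound 33P counted; nine half-log doses, top 1 μM. HTRF: KDR 790-1356, 1 μM biotinylated peptide, ATP at Km (4.0 μM), 40 min, 10 doses. IC50 from logistic fits.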

| SMILES | IC50 [1] [nM] | IC50 [2] [nM] |
| --- | --- | --- |
| C=C(C)n1c(C)cc(C)c(C(=O)Nc2ccc(Oc3ccnc4cc(OC)c(OC)nc34)c(F)c2)c1=O [Compound 20, N-[4-[(6,7-Dimethoxy-1,5-naphthyridin-4-yl)oxy]-3-fluorophenyl]-4,6-dimethyl-2-oxo-1-prop-1-en-2-ylpyridine-3-carboxamide] | ≤ 100 | ≤ 100 |
| COc1cc2nccc(Oc3ccc(NC(=O)c4cn(CCF)c(C)c(C5=CCCC5)c4=O)cc3F)c2nc1OC [Compound 11, 5-(Cyclopenten-1-yl)-N-[4-[(6,7-dimethoxy-1,5-naphthyridin-4-yl)oxy]-3-fluorophenyl]-1-(2-fluoroethyl)-6-methyl-4-oxopyridine-3-carboxamide] | ≤ 100 | ≤ 100 |
| COc1cc2nccc(Oc3ccc(NC(=O)c4cnc(C)c(C5=CCCC5)c4O)cc3)c2cc1OC [Compound 16, 5-(Cyclopenten-1-yl)-N-[4-(6,7-dimethoxyquinolin-4-yl)oxyphenyl]-4-hydroxy-6-methylpyridine-3-carboxamide] | ≤ 100 | ≤ 100 |
| COc1cc2nccc(Oc3ccc(NC(=O)c4cnc(C)c(C5=CCOCC5)c4O)cc3F)c2nc1OC [Compound 1-3, 5-(3,6-Dihydro-2H-pyran-4-yl)-N-[4-[(6,7-dimethoxy-1,5-naphthyridin-4-yl)oxy]-3-fluorophenyl]-4-hydroxy-6-methylpyridine-3-carboxamide] | ≤ 100 | ≤ 100 |
| COCCOc1cc2nccc(Oc3ccc(NC(=O)c4c(C)nc(C)c(C5=CCOCC5)c4O)cc3F)c2nc1OC [Compound 43, 5-(3,6-Dihydro-2H-pyran-4-yl)-N-[3-fluoro-4-[[6-methoxy-7-(2-methoxyethoxy)-1,5-naphthyridin-4-yl]oxy]phenyl]-4-hydroxy-2,6-dimethylpyridine-3-carboxamide] | ≤ 100 | ≤ 100 |
| COc1cc2nccc(Oc3ccc(NC(=O)c4c(C)n(C)c(C)c(N5CCOCC5)c4=O)cc3F)c2nc1OC [Compound 88, N-[4-[(6,7-Dimethoxy-1,5-naphthyridin-4-yl)oxy]-3-fluorophenyl]-1,2,6-trimethyl-5-morpholin-4-yl-4-oxopyridine-3-carboxamide] | ≤ 100 | > 300 |
| COCCOc1cc2nccc(Oc3ccc(NC(=O)c4cnc(C)c(C5=CCCC5)c4O)cc3F)c2nc1OC [Compound 33, 5-(Cyclopenten-1-yl)-N-[3-fluoro-4-[[6-methoxy-7-(2-methoxyethoxy)-1,5-naphthyridin-4-yl]oxy]phenyl]-4-hydroxy-6-methylpyridine-3-carboxamide] | ≤ 100 | ≤ 100 |
| COc1cnc2c(Oc3ccc(NC(=O)c4cnc(C)c(C5=CCOCC5)c4O)cc3F)ccnc2c1 [Compound 1-4, 5-(3,6-Dihydro-2H-pyran-4-yl)-N-[3-fluoro-4-[(7-methoxy-1,5-naphthyridin-4-yl)oxy]phenyl]-4-hydroxy-6-methylpyridine-3-carboxamide] | ≤ 100 | ≤ 100 |
| COCCOc1cc2nccc(Oc3ccc(NC(=O)c4c(C)n(C)c(C)c(/C=C/C(C)(C)C)c4=O)cc3F)c2nc1OC [Compound 45, 5-[(E)-3,3-Dimethylbut-1-enyl]-N-[3-fluoro-4-[[6-methoxy-7-(2-methoxyethoxy)-1,5-naphthyridin-4-yl]oxy]phenyl]-1,2,6-trimethyl-4-oxopyridine-3-carboxamide] | ≤ 100 | ≤ 100 |

More lines, now with the values ahead:

| IC50 [1] [nM] | IC50 [2] [nM] | SMILES |
| --- | --- | --- |
| ≤ 100 | 100 to 300 | CNC(=O)c1c(C)nc(C)c(C(=O)Nc2ccc(Oc3ccnc4cc(OC)c(OC)nc34)c(F)c2)c1O [Compound 97, 3-N-[4-[(6,7-Dimethoxy-1,5-naphthyridin-4-yl)oxy]-3-fluorophenyl]-4-hydroxy-5-N,2,6-trimethylpyridine-3,5-dicarboxamide] |
| ≤ 100 | ≤ 100 | COc1cnc2c(Oc3ccc(NC(=O)c4cnc(C)c(C5=CCOCC5)c4O)cc3)ccnc2c1 [Compound 7, 5-(3,6-Dihydro-2H-pyran-4-yl)-4-hydroxy-N-[4-[(7-methoxy-1,5-naphthyridin-4-yl)oxy]phenyl]-6-methylpyridine-3-carboxamide] |
| ≤ 100 | ≤ 100 | COCCOc1cc2nccc(Oc3ccc(NC(=O)c4cnc(C)c(/C=C/C(C)(C)C)c4O)cc3F)c2nc1OC [Compound 40, 5-[(E)-3,3-Dimethylbut-1-enyl]-N-[3-fluoro-4-[[6-methoxy-7-(2-methoxyethoxy)-1,5-naphthyridin-4-yl]oxy]phenyl]-4-hydroxy-6-methylpyridine-3-carboxamide] |
| ≤ 100 | ≤ 100 | COc1cc2nccc(Oc3ccc(NC(=O)c4cn(C)c(C)c(C5CCCC5)c4=O)cc3F)c2nc1OC [Compound 2, 5-Cyclopentyl-N-[4-[(6,7-dimethoxy-1,5-naphthyridin-4-yl)oxy]-3-fluorophenyl]-1,6-dimethyl-4-oxopyridine-3-carboxamide] |
| ≤ 100 | ≤ 100 | COc1cc2nccc(Oc3ccc(NC(=O)c4c(C)n(C)c(C)c(N5CCCC5)c4=O)cc3F)c2nc1OC [Compound 89, N-[4-[(6,7-Dimethoxy-1,5-naphthyridin-4-yl)oxy]-3-fluorophenyl]-1,2,6-trimethyl-4-oxo-5-pyrrolidin-1-ylpyridine-3-carboxamide] |
| > 300 | > 300 | COc1cc2nccc(Oc3ccc(NC(=O)c4c(C)n(C)c(C)c(C(=O)NC5CC5)c4=O)cc3F)c2nc1OC [Compound 96, 3-N-Cyclopropyl-5-N-[4-[(6,7-dimethoxy-1,5-naphthyridin-4-yl)oxy]-3-fluorophenyl]-1,2,6-trimethyl-4-oxopyridine-3,5-dicarboxamide] |
| ≤ 100 | ≤ 100 | COCCOc1cc2nccc(Oc3ccc(NC(=O)c4c(C)n(C)c(C)c(C5=CCCC5)c4=O)cc3F)c2nc1OC [Compound 42, 5-(Cyclopenten-1-yl)-N-[3-fluoro-4-[[6-methoxy-7-(2-methoxyethoxy)-1,5-naphthyridin-4-yl]oxy]phenyl]-1,2,6-trimethyl-4-oxopyridine-3-carboxamide] |
| 100 to 300 | > 300 | COc1cc2nccc(Oc3ccc(NC(=O)c4c(C)n(C)c(C)c(C(=O)N(C)C)c4=O)cc3F)c2nc1OC [Compound 95, 5-N-[4-[(6,7-Dimethoxy-1,5-naphthyridin-4-yl)oxy]-3-fluorophenyl]-3-N,3-N,1,2,6-pentamethyl-4-oxopyridine-3,5-dicarboxamide] |
| ≤ 100 | > 300 | COc1cnc2c(Oc3ccc(NC(=O)c4cn(C)c(C)c(C5=CCOCC5)c4=O)cc3F)ccnc2c1 [Compound 12, 5-(3,6-Dihydro-2H-pyran-4-yl)-N-[3-fluoro-4-[(7-methoxy-1,5-naphthyridin-4-yl)oxy]phenyl]-1,6-dimethyl-4-oxopyridine-3-carboxamide] |
| ≤ 100 | ≤ 100 | COCCOc1cc2nccc(Oc3ccc(NC(=O)c4cnc(C)c(/C=C/C5CC5)c4O)cc3F)c2nc1OC [Compound 37, 5-[(E)-2-Cyclopropylethenyl]-N-[3-fluoro-4-[[6-methoxy-7-(2-methoxyethoxy)-1,5-naphthyridin-4-yl]oxy]phenyl]-4-hydroxy-6-methylpyridine-3-carboxamide] |
| ≤ 100 | ≤ 100 | COc1cc2nccc(Oc3ccc(NC(=O)c4c(C)nc(C)c(C(=O)NC(C)C)c4O)cc3F)c2nc1OC [Compound 94, 3-N-[4-[(6,7-Dimethoxy-1,5-naphthyridin-4-yl)oxy]-3-fluorophenyl]-4-hydroxy-2,6-dimethyl-5-N-propan-2-ylpyridine-3,5-dicarboxamide] |
| ≤ 100 | ≤ 100 | COCCOc1cc2nccc(Oc3ccc(NC(=O)c4cnc(C)c(C5=CCCCC5)c4O)cc3F)c2nc1OC [Compound 34, 5-(Cyclohexen-1-yl)-N-[3-fluoro-4-[[6-methoxy-7-(2-methoxyethoxy)-1,5-naphthyridin-4-yl]oxy]phenyl]-4-hydroxy-6-methylpyridine-3-carboxamide] |
| ≤ 100 | ≤ 100 | COc1cc2nccc(Oc3ccc(NC(=O)c4cnc(C)c(C5=CCOCC5)c4O)cc3F)c2cc1OC [Compound 19, 5-(3,6-Dihydro-2H-pyran-4-yl)-N-[4-(6,7-dimethoxyquinolin-4-yl)oxy-3-fluorophenyl]-4-hydroxy-6-methylpyridine-3-carboxamide] |
